# Test results published in article PMC10636063, “Progesterone activation of β1-containing BK channels involves two binding sites” (Nature Communications, 2023).
# Experiments:
# cbv1+β1W87F = target: T1, cbv1+β1W87F (Rattus norvegicus, UniProt P97678, W87F); experiment: Channel activity (NPo) in POPE/POPS bilayers, cbv1+β1W87F; assay type: biochemical
# T1 construct: made in house; host or cells: CHO cells, transient transfection; sucrose-gradient membrane preparation
# Source text: BK channel-forming slo1 cDNA (cbv1 isoform; AY330293) was cloned from rat cerebral artery SM cells, and inserted into pcDNA3.1 vector as described. BK β1 cDNA (KCNMB1 product; NP_011452; FJ154955) were isolated from rat cerebral artery SM cells and cloned as described. β4 cDNA (KCNMB4; NP_055320; AY028605) were generously provided by Dr. Ligia Toro. CHO cells were transiently transfected with cbv1 ± β1-, or β4-carrying pcDNA3.1 using X-tremeGENE HP (Sigma-Aldrich). […]
# Proteins for electrophysiological recordings in artificial lipid bilayers remained untagged. […] BK channel-mediated ionic current was recorded in planar lipid bilayers consisting of a POPE:POPS 3:1 (w/w) mixture. […]
# Patch-clamp and bilayer data were analyzed using Clampfit 10.7 software (Molecular Devices). […] Drug-induced NPo changes were determined by comparing baseline NPo (i.e., NPo with the patch/cell perfused with bath solution) to the NPo from the same patch/cell exposed to the agent under study (DMSO/PROG/oxime) dissolved in bath solution. NPo and mean open time values were automatically calculated using Clampfit 10.7, the latter using a 50% threshold detection event.
# [1] = target: T2, smooth muscle myocyte BK channels (C57BL/6) (Mus musculus, UniProt Q8CAE3); experiment: Inside-out patch-clamp of MCA smooth muscle myocytes, wt mice; assay type: cell-based
# T2 construct: endogenous in cells; host or cells: freshly isolated mouse middle cerebral artery smooth muscle cells, inside-out patches
# T2 sequence (Q8CAE3 whole entry): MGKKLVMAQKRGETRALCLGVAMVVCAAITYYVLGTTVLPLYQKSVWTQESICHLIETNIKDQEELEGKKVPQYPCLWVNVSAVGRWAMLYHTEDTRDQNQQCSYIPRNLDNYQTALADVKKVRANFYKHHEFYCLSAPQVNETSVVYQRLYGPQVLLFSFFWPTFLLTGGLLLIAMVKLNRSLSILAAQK
# T2 sequence (Q08460 whole entry partner): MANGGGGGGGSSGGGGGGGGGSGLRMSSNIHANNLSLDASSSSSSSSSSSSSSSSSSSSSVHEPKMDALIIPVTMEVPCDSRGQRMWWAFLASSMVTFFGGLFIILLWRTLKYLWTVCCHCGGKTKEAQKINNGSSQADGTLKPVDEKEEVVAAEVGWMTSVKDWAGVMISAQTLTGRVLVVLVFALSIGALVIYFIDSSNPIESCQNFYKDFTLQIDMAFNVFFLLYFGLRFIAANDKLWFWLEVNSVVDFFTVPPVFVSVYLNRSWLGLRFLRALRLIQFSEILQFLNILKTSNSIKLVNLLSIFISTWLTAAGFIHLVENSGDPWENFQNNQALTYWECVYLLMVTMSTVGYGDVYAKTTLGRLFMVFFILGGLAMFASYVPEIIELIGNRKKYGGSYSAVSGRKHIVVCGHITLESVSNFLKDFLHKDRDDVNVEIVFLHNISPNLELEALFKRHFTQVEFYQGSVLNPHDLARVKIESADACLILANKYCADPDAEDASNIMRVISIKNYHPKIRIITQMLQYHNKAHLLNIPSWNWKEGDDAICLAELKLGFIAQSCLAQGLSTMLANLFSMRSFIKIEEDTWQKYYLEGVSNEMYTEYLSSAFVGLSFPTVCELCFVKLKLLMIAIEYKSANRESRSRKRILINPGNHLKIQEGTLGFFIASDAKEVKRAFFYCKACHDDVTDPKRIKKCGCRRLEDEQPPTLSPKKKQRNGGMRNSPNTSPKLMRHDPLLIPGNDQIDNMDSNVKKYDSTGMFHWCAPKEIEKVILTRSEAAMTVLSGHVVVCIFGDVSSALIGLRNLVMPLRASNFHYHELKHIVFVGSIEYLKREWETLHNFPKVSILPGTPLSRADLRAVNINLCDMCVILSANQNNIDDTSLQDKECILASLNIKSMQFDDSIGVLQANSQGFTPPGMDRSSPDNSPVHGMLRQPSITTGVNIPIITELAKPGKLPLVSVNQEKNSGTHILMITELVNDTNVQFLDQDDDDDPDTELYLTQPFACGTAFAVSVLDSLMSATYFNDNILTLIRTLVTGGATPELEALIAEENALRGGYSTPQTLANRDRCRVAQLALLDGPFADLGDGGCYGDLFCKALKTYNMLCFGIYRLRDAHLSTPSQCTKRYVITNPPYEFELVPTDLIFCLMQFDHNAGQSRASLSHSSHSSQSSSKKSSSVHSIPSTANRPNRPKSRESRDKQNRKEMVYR
# Description: Ionic currents were recorded from excised, inside-out (I/O) patches. […] In all experiments, free [Ca^2+] in solution was adjusted to the desired value by adding the appropriate amount of Ca^2+ from a 1 mM CaCl2 stock. An agar bridge with Cl^- as main anion was used as ground electrode. Solutions were applied onto the cytosolic side of I/O patches using an automated, pressurized system (Octaflow; […] Ionic currents at single channel resolution were recorded using an EPC8 amplifier (HEKA) at 1 kHz. Data were digitized at 5 kHz using a Digidata […] A/D converter and pCLAMP 8.0 (Molecular Devices); n = 5/group. […] Drug-induced NPo changes were determined by comparing baseline NPo (i.e., NPo with the patch/cell perfused with bath solution) to the NPo from the same patch/cell exposed to the agent under study (DMSO/PROG/oxime) dissolved in bath solution.
# [2] = test system: de-endothelialized MCA segments of KCNMB1-/- mice permeabilized with β1 constructs; experiment: Cerebral artery diameter in vitro, KCNMB1-/- MCA permeabilized with β1 constructs; design: species or system mouse; settings: 10 µM; W87F, Y32V or W163I constructs
# Source text: Eight-12 week-old C57BL/6J and KCNMB1^−/− on C57BL/6 background mice of both sexes were deeply anesthetized with isoflurane via inhalation in a tightly sealed jar. […] For de-endothelialized records, the endothelium was removed by passing an air bubble into the vessel lumen for 90 s[30]. This method has been consistently used by our group and validated using endothelium-dependent versus endothelium-independent vasodilators[16],[26]. Arteries were cannulated as previously described by our group[26],[40]. […] PSS was continuously bubbled with an O2/CO2/N2 (21/5/74%) gas mixture and maintained at 35–37 °C. The artery external wall diameter was measured using the automatic edge-detection function of lonWizard software (lonOptix) via Sanyo VCB-3512T camera (Sanyo Electric Co.). Arteries were first incubated at an intravascular pressure of 10 mm Hg for 10 min. Then intravascular pressure was increased to 60 mmHg and held steady throughout the experiment to induce myogenic tone development and maintenance[19],[30],[51]. […] To determine arterial viability, arterial contractility was probed with a high KCl solution at the end of each experiment. […] Like PSS, the high-KCl solution was continuously bubbled with O2/CO2/N2 (21/5/74%) gas mixture and maintained at 35–37 °C. […]
# MCA branches (C57BL/6J) = experiment: EtOH-induced cerebrovascular constriction in vivo (cranial window); design: species or system mouse; settings: 10 µM PROG + 50 mM EtOH infused
# Description: Eight-12 week-old male and female C57BL/6J mice were anesthetized with a mixture of xylazine/ketamine (12/100 mg per kg) and kept anesthetized for the duration of the experiment with subsequent ketamine doses (50 mg/kg of weight) as needed. A catheter was inserted into the carotid artery so that the infusion went straight to the brain rather than towards the thoracic cavity. An area of the skull was cleared of tissue and thinned to expose the branching arteries originating from the MCA on the side the catheter was inserted, above the zygomatic arch, between the ear and eye of the skull[19],[34]. The exposed arteries branching out from the MCA were monitored using a Leica MC170 HD microscope with a mounted camera (Leica M125 C) connected to a computer monitor. Drugs were diluted to their final concentration in sodium saline (0.9% NaCl) and administered via catheter at 0.1 ml/25 g of weight. Cranial window images before and after drug administration were acquired every 60 seconds for subsequent analysis.
# T1 sequence (P97678 whole entry W87F): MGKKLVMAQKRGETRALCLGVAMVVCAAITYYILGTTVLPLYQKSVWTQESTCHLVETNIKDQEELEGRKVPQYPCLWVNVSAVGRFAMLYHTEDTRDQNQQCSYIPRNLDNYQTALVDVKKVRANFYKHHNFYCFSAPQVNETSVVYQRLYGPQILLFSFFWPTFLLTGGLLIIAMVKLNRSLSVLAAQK
# T1 sequence (Q62976 1-1148 isoform Q62976-2 partner): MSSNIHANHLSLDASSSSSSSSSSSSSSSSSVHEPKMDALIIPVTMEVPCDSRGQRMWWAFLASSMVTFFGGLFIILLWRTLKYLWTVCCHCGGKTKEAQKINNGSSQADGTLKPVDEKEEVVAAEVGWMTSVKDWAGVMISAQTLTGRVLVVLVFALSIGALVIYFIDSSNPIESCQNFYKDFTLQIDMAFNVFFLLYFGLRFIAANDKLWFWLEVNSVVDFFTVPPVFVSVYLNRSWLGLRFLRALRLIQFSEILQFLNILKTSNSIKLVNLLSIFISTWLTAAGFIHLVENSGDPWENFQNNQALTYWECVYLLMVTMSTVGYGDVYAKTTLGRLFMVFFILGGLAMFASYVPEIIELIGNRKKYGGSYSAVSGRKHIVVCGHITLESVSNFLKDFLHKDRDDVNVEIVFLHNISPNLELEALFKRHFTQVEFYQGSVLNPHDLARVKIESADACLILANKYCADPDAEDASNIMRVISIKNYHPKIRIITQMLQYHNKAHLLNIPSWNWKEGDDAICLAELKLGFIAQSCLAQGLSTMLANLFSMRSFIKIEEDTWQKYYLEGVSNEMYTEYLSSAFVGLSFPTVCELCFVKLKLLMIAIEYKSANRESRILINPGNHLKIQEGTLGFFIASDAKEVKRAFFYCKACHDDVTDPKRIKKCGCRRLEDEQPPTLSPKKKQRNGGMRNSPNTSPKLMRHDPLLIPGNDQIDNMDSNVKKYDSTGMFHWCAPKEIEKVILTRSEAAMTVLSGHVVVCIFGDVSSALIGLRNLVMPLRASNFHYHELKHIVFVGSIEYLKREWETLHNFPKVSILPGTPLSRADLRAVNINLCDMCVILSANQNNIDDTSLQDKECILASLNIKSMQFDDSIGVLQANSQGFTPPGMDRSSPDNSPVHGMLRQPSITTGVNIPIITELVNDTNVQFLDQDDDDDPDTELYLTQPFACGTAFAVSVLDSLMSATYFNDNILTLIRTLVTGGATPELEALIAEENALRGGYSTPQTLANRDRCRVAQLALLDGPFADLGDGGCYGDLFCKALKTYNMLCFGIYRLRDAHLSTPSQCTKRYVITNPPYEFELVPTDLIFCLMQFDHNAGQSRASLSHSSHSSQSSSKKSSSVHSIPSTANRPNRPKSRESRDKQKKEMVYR
structure (smiles),measurement,setting,value
"CC(=O)[C@H]1CC[C@H]2[C@@H]3CCC4=CC(=O)CC[C@]4(C)[C@H]3CC[C@]12C [PROG, Progesterone]",action on channel activity (NPo),"cbv1+β1W87F; 10 µM, vs vehicle",effectively abolished PROG action
same,"normalized NPo, time course Fig 4E","cbv1+β1W87F; cbv1+w87F prog, time 1 min (normalisation reference)",1
same,increase of BK channel activity,"[1]; 10 µM, I/O patches, 30 μM free Ca2+",~ 3 fold
same,"normalized NPo, time course Fig 5C","[1]; wt mouse, PROG, time 1 (normalisation reference), columns = cell number",1
same,vasoactive response of MCA segments,[2],failed to dilate MCA segments
same,effect on EtOH-induced cerebrovascular constriction,MCA branches (C57BL/6J),still protected against EtOH-induced cerebrovascular constriction
